System: 435261-313-R-J1-PDC complex spheroid viability
Test: Anticancer human tumor 435261-313-R-J1-PDC patient-derived colon adenocarcinoma cell line growth inhibition [GQUAD]
Conditions: for IC50: curve of first compound; for viability, T/C: stronger effect = lower value
Description: DNA G-quadruplex Stabilizer Agents in Combinations in Complex Spheroids
A high-throughput screen of multi-cell type tumor spheroids was designed to identify active combinations of DNA G-quadruplex stabilizer agents and targeted small molecules. Complex spheroids include a stromal component modeled by human endothelial cells (HUVEC) and fibroblasts modeled by human mesenchymal stem cells (MSCs). The concentration ranges selected for each drug and investigational agent were based upon clinically achievable concentrations if the clinical Cmax of the agent was known.
Compounds. The drugs and investigational agents: pidnarulex (CX-5461; NSC782164), APTO-253 (NSC789042), BRACO-19 (NSC847499), peposertib (NSC802822), ceralasertib (NSC780249), elimusertib (NSC800525), camonsertib (NSC841442), AZD-1390 (NSC803789), olaparib (NSC753686), talazoparib (NSC767125), ART-558 (NSC835418), sotorasib (NSC818433), MRTX-1133 (NSC836407), SN-38 (NSC673596), topotecan (NSC609699), etoposide (NSC141540), doxorubicin (NSC123127), gemcitabine (NSC613327), 5-fluorouracil (NSC19893), paclitaxel (NSC125973), vemurafenib (NSC761431), panobinostat (NSC761190), R-306465 (JNJ-16241199; NSC773264), adavosertib (NSC754352), TP-3654 (NSC805149), carboplatin (NSC241240), KSQ-4279 (NSC840948), and staurosporine (NSC755774) were obtained from the National Cancer Institute (NCI) Developmental Therapeutics Program Chemical Repository (34). The FDA-approved anticancer drug set is available from the NCI Developmental Therapeutics Program. […] The stock solutions were prepared in dimethyl sulfoxide (DMSO, Sigma-Aldrich, St. Louis, MO, cat. D2650) at 800-fold the tested concentration and stored at -70 degrees C prior to their use. All drugs and investigational agents were tested over a range starting from a high concentration at or near the clinical Cmax and decreasing in half-log increments. If the clinical Cmax for an agent had not been determined, the highest concentration tested was 10 microM.
2.3 Cell Culture. All cells were maintained in an incubator at 37 degrees C and 5% CO2 with 95% humidity. The PDC lines were cultured according to standard operating procedures established by the NCI PDMR. All PDCs were thawed and cultured in Matrigel-coated flasks prepared with a working solution of 1X Ham's F-12 nutrient mix, without supplementation (Invitrogen, cat. 11765054), 100 U/mL penicillin-streptomycin (Invitrogen, cat. 15140122), and 2.5% Matrigel (Corning Inc., cat. 354248) for the first three passages. The 857933-349-R-J2-PDC line was cultured in 6C/Colon 1B media, which includes advanced DMEM/F-12 (Thermo Fisher Scientific, cat. 12634028), 10 mM HEPES (Thermo Fisher Scientific, cat. 15630080), 1X GlutaMAX supplement (Thermo Fisher Scientific, cat. 35050061), 0.1 mg/mL primocin (InvivoGen, cat. ant-pm-2), 10% defined fetal bovine serum, heat inactivated (HyClone Laboratories Inc., cat. SH30070.03HI), 50% L-WRN conditioned media (ATCC, cat. CRL-3276), 1.25 mM N-Acetyl-L-cysteine (Sigma-Aldrich, cat. A9165), 10 mM nicotinamide (Sigma-Aldrich, cat. N0636), 1X B-27 supplement (Thermo Fisher Scientific, cat. 17504044), 1X N-2 supplement (Thermo Fisher Scientific, cat. 17502048), 10 microM Y-27632 dihydrochloride (Tocris Bioscience, cat. 1254), and 50 ng/mL human EGF recombinant protein (Thermo Fisher Scientific, cat. PHG0311). The 485176-168-R4-J1-PDC line was cultured in Panc media, which includes all 6C/Colon 1B media components plus 100 ng/mL human FGF-10 (Thermo Fisher Scientific, cat. 100-26), 500 nM SB-431542 (Selleckchem, cat. S1067), and gastrin (Tocris, cat. 3006).
[…]

[1] = second compound 0.0316 µM, first compound 0.0316 µM
[2] = second compound 0.0316 µM, first compound 0.1 µM
[3] = second compound 0.0316 µM, first compound 0.316 µM
[4] = second compound 0.0316 µM, first compound 1 µM
[5] = second compound 0.0316 µM, first compound 3.16 µM
[6] = second compound 0.0316 µM, first compound 10 µM
[7] = second compound 0.1 µM, first compound 0.0316 µM
[8] = second compound 0.1 µM, first compound 0.1 µM
[9] = second compound 0.1 µM, first compound 0.316 µM
[10] = second compound 0.1 µM, first compound 1 µM
[11] = second compound 0.1 µM, first compound 3.16 µM
[12] = second compound 0.1 µM, first compound 10 µM
[13] = second compound 0.316 µM, first compound 0.0316 µM
[14] = second compound 0.316 µM, first compound 0.1 µM
[15] = second compound 0.316 µM, first compound 0.316 µM
[16] = second compound 0.316 µM, first compound 1 µM
[17] = second compound 0.316 µM, first compound 3.16 µM
[18] = second compound 0.316 µM, first compound 10 µM
[19] = second compound 1 µM, first compound 0.0316 µM
[20] = second compound 1 µM, first compound 0.1 µM
[21] = second compound 1 µM, first compound 0.316 µM
[22] = second compound 1 µM, first compound 1 µM
[23] = second compound 1 µM, first compound 3.16 µM
[24] = second compound 1 µM, first compound 10 µM
[25] = second compound 3.16 µM, first compound 0.0316 µM
[26] = second compound 3.16 µM, first compound 0.1 µM
[27] = second compound 3.16 µM, first compound 0.316 µM
[28] = second compound 3.16 µM, first compound 1 µM
[29] = second compound 3.16 µM, first compound 3.16 µM
[30] = second compound 3.16 µM, first compound 10 µM
[31] = second compound 10 µM, first compound 0.0316 µM
[32] = second compound 10 µM, first compound 0.1 µM
[33] = second compound 10 µM, first compound 0.316 µM
[34] = second compound 10 µM, first compound 1 µM
[35] = second compound 10 µM, first compound 3.16 µM
[36] = second compound 10 µM, first compound 10 µM
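Note: spheroids exposed to the agents for seven days before readout.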
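Throughout, for viability, T/C: percent of vehicle control viability with DMSO wells as 100%.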

Structure (SMILES): CC1COCCN1c1cc(C2(O)CC3CCC(C2)O3)c2cnn(-c3ccn[nH]3)c2n1 (centres undefined) + CN(C)c1ccc(Nc2c3ccc(NC(=O)CCN4CCCC4)cc3nc3cc(NC(=O)CCN4CCCC4)ccc23)cc1
- IC50 (second compound 0.0316 µM): 193 nM
- IC50 (second compound 0.1 µM): 316 nM
- IC50 (second compound 0.316 µM): 225 nM
- IC50 (second compound 1 µM): 257 nM
- IC50 (second compound 3.16 µM): < 31.6 nM
- IC50 (second compound 10 µM): < 31.6 nM
- viability, T/C [1]: 63%
- viability, T/C [2]: 58.1%
- viability, T/C [3]: 45.1%
- viability, T/C [4]: 27.4%
- viability, T/C [5]: 23.2%
- viability, T/C [6]: 12%
- viability, T/C [7]: 71.3%
- viability, T/C [8]: 82.8%
- viability, T/C [9]: 47.3%
- viability, T/C [10]: 26.8%
- viability, T/C [11]: 21.1%
- viability, T/C [12]: 10.8%
- viability, T/C [13]: 75.1%
- viability, T/C [14]: 61.7%
- viability, T/C [15]: 45.7%
- viability, T/C [16]: 28.9%
- viability, T/C [17]: 25%
- viability, T/C [18]: 11.6%
- viability, T/C [19]: 82.7%
- viability, T/C [20]: 64.5%
- viability, T/C [21]: 48%
- viability, T/C [22]: 28.3%
- viability, T/C [23]: 21.1%
- viability, T/C [24]: 7.4%
- viability, T/C [25]: 48.6%
- viability, T/C [26]: 44.3%
- viability, T/C [27]: 31.9%
- viability, T/C [28]: 13.3%
- viability, T/C [29]: 9.48%
- viability, T/C [30]: 3.11%
- viability, T/C [31]: 26.9%
- viability, T/C [32]: 18.5%
- viability, T/C [33]: 17%
- viability, T/C [34]: 7.23%
- viability, T/C [35]: 3.13%
- viability, T/C [36]: 1.2%

Structure (SMILES): CCCS(=O)(=O)Nc1ccc(F)c(C(=O)c2c[nH]c3ncc(-c4ccc(Cl)cc4)cc23)c1F + CN(C)c1ccc(Nc2c3ccc(NC(=O)CCN4CCCC4)cc3nc3cc(NC(=O)CCN4CCCC4)ccc23)cc1
- IC50 (second compound 0.0316 µM): 5690 nM
- IC50 (second compound 0.1 µM): 5640 nM
- IC50 (second compound 0.316 µM): 5350 nM
- IC50 (second compound 1 µM): 5620 nM
- IC50 (second compound 3.16 µM): 3770 nM
- IC50 (second compound 10 µM): < 31.6 nM
- viability, T/C [1]: 123%
- viability, T/C [2]: 110%
- viability, T/C [3]: 143%
- viability, T/C [4]: 123%
- viability, T/C [5]: 85.6%
- viability, T/C [6]: 15.8%
- viability, T/C [7]: 84.3%
- viability, T/C [8]: 110%
- viability, T/C [9]: 120%
- viability, T/C [10]: 92.3%
- viability, T/C [11]: 81.6%
- viability, T/C [12]: 19.6%
- viability, T/C [13]: 124%
- viability, T/C [14]: 94.6%
- viability, T/C [15]: 92.1%
- viability, T/C [16]: 128%
- viability, T/C [17]: 76.1%
- viability, T/C [18]: 19.1%
- viability, T/C [19]: 77.3%
- viability, T/C [20]: 90.7%
- viability, T/C [21]: 105%
- viability, T/C [22]: 92.5%
- viability, T/C [23]: 77.7%
- viability, T/C [24]: 22.1%
- viability, T/C [25]: 82%
- viability, T/C [26]: 53.6%
- viability, T/C [27]: 74.7%
- viability, T/C [28]: 112%
- viability, T/C [29]: 57.1%
- viability, T/C [30]: 10.5%
- viability, T/C [31]: 45.5%
- viability, T/C [32]: 54.3%
- viability, T/C [33]: 33.9%
- viability, T/C [34]: 34%
- viability, T/C [35]: 33.8%
- viability, T/C [36]: 7.35%

From PubChem BioAssay AID2060494 (Molecular Pharmacology Branch, DTP, NCI, 2025)
